By IC50 is commonly meant the concentration that inhibits the measured activity by half.

In one assay the target is T1, TEC (Homo sapiens, UniProt P42680).
T1 sequence (P42680 1-631): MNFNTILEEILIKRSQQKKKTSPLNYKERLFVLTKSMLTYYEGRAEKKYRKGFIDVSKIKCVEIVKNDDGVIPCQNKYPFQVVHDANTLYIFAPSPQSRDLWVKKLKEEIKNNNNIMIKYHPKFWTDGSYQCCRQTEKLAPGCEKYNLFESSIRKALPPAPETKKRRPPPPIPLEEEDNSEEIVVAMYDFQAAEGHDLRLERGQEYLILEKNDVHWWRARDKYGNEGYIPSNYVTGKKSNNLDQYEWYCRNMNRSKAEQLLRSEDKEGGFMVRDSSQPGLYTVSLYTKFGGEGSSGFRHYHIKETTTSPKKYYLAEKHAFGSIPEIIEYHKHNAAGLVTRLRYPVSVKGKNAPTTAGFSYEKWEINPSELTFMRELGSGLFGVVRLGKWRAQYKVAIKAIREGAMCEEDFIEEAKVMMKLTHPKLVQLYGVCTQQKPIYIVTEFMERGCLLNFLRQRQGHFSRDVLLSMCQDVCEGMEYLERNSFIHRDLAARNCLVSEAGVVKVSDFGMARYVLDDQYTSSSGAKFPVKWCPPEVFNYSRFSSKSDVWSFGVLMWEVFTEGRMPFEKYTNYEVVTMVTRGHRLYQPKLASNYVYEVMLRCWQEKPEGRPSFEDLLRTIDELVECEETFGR
The experiment in a line: Inhibition of a panel of kinases (in vitro HotSpot kinase assay, 33P-ATP, 1 μM ATP). It counts as biochemical. The settings on record: for TEC/Btk: ratio of TEC IC50 to Btk IC50 (selectivity); for IC50: HotSpot kinase assay, 1 μM ATP. As to the method: Example 63: Inhibition of a Panel of Kinases The degree of inhibition of a panel of kinases is determined using the in vitro HotSpot kinase assay (purified enzymes, ^33P-ATP, an appropriate substrate and 1 μM ATP).

The next assay addresses T2, Btk (Homo sapiens, UniProt Q06187).
T2 construct: purified from insect cells as a full-length construct containing a N-terminal 6X-His tag; His6 (N); made in house; host or cells: insect cells (Method C)
The experiment in a line: Btk in vitro inhibitory activity (one of Method A TR-FRET, Method B electrophoretic mobility shift, Method C radiometric filter binding). It counts as biochemical. The settings on record: wild-type Btk; read-out: Btk-WT IC50. As for the experimental part: Example 62a: Btk In Vitro Inhibitory Activity (Method A)
Btk kinase activity is determined using a time-resolved fluorescence resonance energy transfer (TR-FRET) methodology. Measurements are performed in a reaction volume of 50 μL using 96-well assay plates. […] The reaction is quenched by the addition of 1.2 equivalents of EDTA (relative to divalent cation) in 25 μL of 1× Lance buffer (Perkin-Elmer). Streptavidin-APC (Perkin-Elmer) and Eu-labeled p-Tyr100 antibody (Perkin-Elmer) in 1× Lance buffer are added in a 25 μL volume to give final concentrations of 100 nM and 2.5 nM, respectively, and the mixture is allowed to incubate for one hour. The TR-FRET signal is measured on a multimode plate reader with an excitation wavelength (λEx) of 330 nm and detection wavelengths (λEm) of 615 and 665 nm. Activity is determined by the ratio of the fluorescence at 665 nm to that at 615 nm. For each compound, enzyme activity is measured at various concentrations of compound. Negative control reactions are performed in the absence of inhibitor in replicates of six, and two no-enzyme controls are used to determine baseline fluorescence levels. Inhibition constants, Ki(app), were obtained using the program BatchKi (Kuzmic et al. (2000), Anal. Biochem. 286:45-50). IC50s are obtained according to the equation:
IC50={Ki(app)/(1+[ATP]/Km^ATP)}+[E]total/2;
For all kinases, [ATP]=Km^ATP, [Btk]total=0.5 nM and [Lck]total=6 nM.
Example 62b: Btk In Vitro Inhibitory Activity (Method B)
Kinase activity is measured in vitro using electrophoretic mobility shift assay. The kinase reactions are assembled in a total volume of 25 μL in 384 well plates. The reactions comprise: BTK enzyme (1 nM, N-terminal His6-tagged, recombinant, full-length, human BTK purified from baculovirus Sf21 insect cell system, 293HEK, or other suitable source), inhibitor, ATP, fluorescently labeled peptide substrate (1 μM, FAM-GEEPLYWSFPAKKK-NH2) in a reaction buffer composed of 100 mM HEPES, pH7.5, 5 mM MgCl2 1 mM DTT, 0.1% bovine serum albumin, 0.01% Triton X-100, and 1% DMSO. The reaction is incubated and is quenched by the addition of termination buffer (100 mM HEPES, pH 7.5, 0.01% Triton X-100, 30 mM EDTA). The terminated reactions are analyzed using a 12 channel LabChip® 3000 microfluidic detection instrument (Caliper Life Sciences). The enzymatic phosphorylation of the peptide results in a change in net charge, enabling electrophoretic separation of product from substrate peptide. As substrate and product peptides are separated, two peaks of fluorescence are observed. Change in the relative fluorescence intensity of the substrate and product peaks is the parameter measured, reflecting enzyme activity. In the presence of an inhibitor, the ratio between product and substrate is altered: the signal of the product decreases, while the signal of the substrate increases.
Activity in each sample is determined as the product to sum ratio (PSR):P/(S+P), where P is the peak height of the product peptide and S is the peak height of the substrate peptide. For each compound, enzyme activity is measured at various concentrations (12 concentrations of compound spaced by 3× dilution intervals). Negative control samples (0%—inhibition in the absence of inhibitor) and positive control samples (100%—inhibition, in the presence of 20 mM EDTA) are assembled in replicates of four and are used to calculate %—inhibition values for each inhibitor at each concentration. Percent inhibition (Pinh) is determined using following equation:
Pinh=(PSR0%−PSRinh)/(PSR0%−PSR100%)*100, where PSRinh is the product sum ratio in the presence of inhibitor, PSR0% is the average product sum ration in the absence of inhibitor and PSR100% is the average product sum ratio in 100%—inhibition control samples.
The IC50 values of inhibitors are determined by 4 parameter sigmoidal dose-response model fitting of the inhibition curves (Pinh versus inhibitor concentration) using XLfit 4 software. […]
On the technique in general: In EMSA bound probe runs differently from free probe, usually more slowly.

T2 sequence (Q06187 whole entry): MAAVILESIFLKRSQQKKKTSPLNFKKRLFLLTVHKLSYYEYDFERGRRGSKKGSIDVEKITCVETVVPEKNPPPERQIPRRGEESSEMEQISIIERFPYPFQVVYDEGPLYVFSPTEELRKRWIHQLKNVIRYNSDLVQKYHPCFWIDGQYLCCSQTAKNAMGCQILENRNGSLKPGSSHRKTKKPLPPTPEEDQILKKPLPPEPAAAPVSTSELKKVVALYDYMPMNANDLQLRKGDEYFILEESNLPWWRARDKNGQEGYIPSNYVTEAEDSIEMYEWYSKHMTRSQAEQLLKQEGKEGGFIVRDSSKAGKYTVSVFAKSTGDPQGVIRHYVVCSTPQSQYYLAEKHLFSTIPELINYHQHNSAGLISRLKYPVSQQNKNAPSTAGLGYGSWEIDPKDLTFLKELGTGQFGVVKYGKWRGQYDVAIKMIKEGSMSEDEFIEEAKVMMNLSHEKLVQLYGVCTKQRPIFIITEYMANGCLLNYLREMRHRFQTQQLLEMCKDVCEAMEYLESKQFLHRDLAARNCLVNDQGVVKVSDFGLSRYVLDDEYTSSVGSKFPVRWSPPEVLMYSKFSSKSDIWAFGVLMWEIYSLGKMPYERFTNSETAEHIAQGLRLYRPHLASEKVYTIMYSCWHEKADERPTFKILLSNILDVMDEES

On to `CC(C)(C)c1ccc(C(=O)NCc2ccc(-c3ccnc4[nH]nc(N[C@H]5CC[C@H](O)CC5)c34)cc2F)cc1` [Compound 12, 4-tert-butyl-N-{[2-fluoro-4-(3-{[(1r,4r)-4-hydroxycyclohexyl]amino}-1H-pyrazolo[3,4-b]pyridin-4-yl)phenyl]methyl}benzamide], for which the TEC/Btk on TEC is recorded as 11. Moreover, at Btk, the IC50 was found to be 879 nM.
For the molecule `CC(C)(O)c1ccc(C(=O)NCc2ccc(-c3ccnc4[nH]nc(N[C@H]5CC[C@H](O)CC5)c34)cc2F)cc1` [Compound 26, N-{[2-fluoro-4-(3-{[(1r,4r)-4-hydroxycyclohexyl]amino}-1H-pyrazolo[3,4-b]pyridin-4-yl)phenyl]methyl}-4-(2-hydroxypropan-2-yl)benzamide], on TEC, the half-inhibitory concentration (IC50) is above 10000 nM and the TEC/Btk was above 100. Moreover, the concentration for half-maximal inhibition (IC50) at Btk came to 932 nM.
The corresponding values for `CC(C)(C)c1cc(C(=O)NCc2ccc(-c3ccnc4[nH]nc(N[C@H]5CC[C@H](O)CC5)c34)cc2F)no1` [Compound 27, 5-tert-butyl-N-{[2-fluoro-4-(3-{[(1r,4r)-4-hydroxycyclohexyl]amino}-1H-pyrazolo[3,4-b]pyridin-4-yl)phenyl]methyl}-1,2-oxazole-3-carboxamide] are 6260 nM, 142 and 44.2 nM.
For the molecule `CC(C)(C)c1ccc2c(c1)CCN(Cc1ccc(-c3ccnc4[nH]nc(N[C@@H]5CCN(C=O)C5)c34)cc1F)C2=O` [Compound 60, (3R)-3-[(4-{4-[(6-tert-butyl-1-oxo-1,2,3,4-tetrahydroisoquinolin-2-yl)methyl]-3-fluorophenyl}-1H-pyrazolo[3,4-b]pyridin-3-yl)amino]pyrrolidine-1-carbaldehyde], the half-maximal inhibitory concentration (IC50) on TEC is 7420 nM; on Btk it was 21 nM.
On to `CCc1nc(C(=O)NCc2ccc(-c3ccnc4[nH]nc(N[C@@H]5CCNC5)c34)cc2F)no1` [Example 54], for which the IC50 against TEC and at Btk was above 10000 nM in each case.
Consider `CC(C)(C)c1ccc(C(=O)NCc2ccc(-c3ccnc4[nH]nc(N[C@H]5CCN(C=O)C5)c34)cc2F)cc1` [Example 61, 4-tert-butyl-N-{[2-fluoro-4-(3-{[(3S)-1-formylpyrrolidin-3-yl]amino}-1H-pyrazolo[3,4-b]pyridin-4-yl)phenyl]methyl}benzamide], for which, at TEC, half-maximal inhibition (IC50) was put at 5950 nM and the TEC/Btk came to 174. Besides, the IC50 on Btk came out at 34.1 nM.
As to `C[C@H](NC(=O)c1noc(C(C)(C)C)n1)c1ccc(-c2ccnc3[nH]nc(N[C@@H]4CCNC4)c23)cc1F` [Example 290, 5-tert-butyl-N-{(1S)-1-[2-fluoro-4-(3-{[(3R)-pyrrolidin-3-yl]amino}-1H-pyrazolo[3,4-b]pyridin-4-yl)phenyl]ethyl}-1,2,4-oxadiazole-3-carboxamide], on Btk, the concentration for half-maximal inhibition (IC50) came to 81.4 nM.
As to `C[C@H](NC(=O)c1noc(C(C)(C)C)n1)c1ccc(-c2ccnc3[nH]nc(N[C@@H]4CCN(C(=O)N(C)C)C4)c23)cc1F` [Example 291, 5-tert-butyl-N-{(1S)-1-[4-(3-{[(3R)-1-(dimethylcarbamoyl)pyrroli-din-3-yl]amino}-1H-pyrazolo[3,4-b]pyridin-4-yl)-2-fluorophenyl]ethyl}-1,2,4-oxadiazole-3-carboxamide], the half-maximal inhibitory concentration (IC50) on Btk was determined as 41.9 nM.
On to `CC1(C)Cc2cc3n(c2C1)CCN(c1nccc(-c2ccnc4[nH]nc(NC5CCNC5)c24)c1CO)C3=O` (stereo not drawn) [Example 297, 2-[3-(hydroxymethyl)-4-{3-[(pyrrolidin-3-yl)amino]-1H-pyrazolo[3,4-b]pyridin-4-yl}pyridin-2-yl]-7,7-dimethyl-3,4,7,8-tetrahydro-2H-cyclopenta[4,5]pyrrolo[1,2-a]pyrazin-1(6H)-one], for which the 50% inhibitory concentration (IC50) on Btk is 323 nM.
On to `CN(C)C(=O)N1CC[C@@H](Nc2n[nH]c3nccc(-c4ccnc(N5CCn6c(cc7c6CC(C)(C)C7)C5=O)c4CO)c23)C1` [Example 299, (3R)-3-({4-[2-(7,7-dimethyl-1-oxo-1,3,4,6,7,8-hexahydro-2H-cyclopenta[4,5]pyrrolo[1,2-a]pyrazin-2-yl)-3-(hydroxymethyl)pyridin-4-yl]-1H-pyrazolo[3,4-b]pyridin-3-yl}amino)-N,N-dimethylpyrrolidine-1-carboxamide], for which, on Btk, the IC50 came to 175 nM.
Still for that read-out and setting: as for `CC(C)Cc1cc(C(=O)NCc2ccc(-c3ccnc4[nH]nc(N[C@@H]5CCCN(C(=O)N(C)C)[C@@H]5C)c34)cc2F)no1` [Example 306, (2R,3R)-3-({4-[3-fluoro-4-({[5-(2-methylpropyl)-1,2-oxazole-3-carbonyl]amino}methyl)phenyl]-1H-pyrazolo[3,4-b]pyridin-3-yl}amino)-N,N,2-trimethylpiperidine-1-carboxamide], the figure is 531 nM; as for `C[C@H]1CC[C@@H](N)CN1c1n[nH]c2nccc(-c3ccc(CNC(=O)c4cc(C(C)(C)C)on4)c(F)c3)c12` [Example 322, N-[(4-{3-[(2S,5R)-5-amino-2-methylpiperidin-1-yl]-1H-pyrazolo[3,4-b]pyridin-4-yl}-2-fluorophenyl)methyl]-5-tert-butyl-1,2-oxazole-3-carboxamide], 156 nM.
With `CN(C)C(=O)N1CC[C@@H](Nc2n[nH]c3nccc(-c4ccc(CNC(=O)c5coc(C6CCC6)n5)c(F)c4)c23)C1` [Example 328, 2-cyclobutyl-N-{[4-(3-{[(3R)-1-(dimethylcarbamoyl)pyrroli-din-3-yl]amino}-1H-pyrazolo[3,4-b]pyridin-4-yl)-2-fluorophenyl]methyl}-1,3-oxazole-4-carboxamide], the IC50 on Btk was determined as 509 nM.
Same read-out and setting: then `CN1CCN(c2n[nH]c3nccc(-c4ccc(CNC(=O)c5nc(C(C)(C)C)no5)c(F)c4)c23)C(=O)C1=O` [Example 381, 3-tert-butyl-N-({2-fluoro-4-[3-(4-methyl-2,3-dioxopiperazin-1-yl)-1H-pyrazolo[3,4-b]pyridin-4-yl]phenyl}methyl)-1,2,4-oxadiazole-5-carboxamide], with 183 nM; and `CN1C[C@@H](Nc2n[nH]c3nccc(-c4ccc(CNC(=O)c5nc(C(C)(C)C)no5)c(F)c4)c23)CC1=O` [Example 392, 3-tert-butyl-N-{[2-fluoro-4-(3-{[(3S)-1-methyl-5-oxopyrrolidin-3-yl]amino}-1H-pyrazolo[3,4-b]pyridin-4-yl)phenyl]methyl}-1,2,4-oxadiazole-5-carboxamide], with 5.64 nM.

The values are drawn from US20180194762A1 (Pharmacyclics LLC, priority 2017, published 2018).
